In US20090286804A1, “METABOLITES OF 1-[6-(1-ETHYL-1-HYDROXY-PROPYL)-PYRIDIN-3-YL]-3-[2-(4-METHYL-PIPERAZIN-1-YL)-BENZYL]-PYRROLIDIN-2-ONE AS SERATONIN RECEPTOR ANTAGONISTS” (Pfizer Inc, priority 2005, published 2009):

Target: serotonin-1 receptors (5-HT1A and/or 5-HT1B)
Test: radioligand binding assay for serotonin-1 receptor affinity (IC50)
Conditions: receptor subtype not given
Excerpt: The affinities of the compounds of this invention for the various serotonin-1 receptors can be determined using standard radioligand binding assays as described in the literature. The 5-HT1A affinity can be measured using the procedure of Hoyer et al. (Brain Res., 376, 85 (1986)). The 5-HT1B affinity can be measured using the procedure of Heuring and Peroutka (J. Neurosci., 7, 894 (1987)).
The in vitro activity of the compounds of the present invention at the 5-HT1B binding site can be determined according to the following procedure. Bovine caudate tissue is homogenized and suspended in 20 volumes of a buffer containing 50 mM TRIS•hydrochloride (tris[hydroxymethyl]aminomethane hydrochloride) at a pH of 7.7. The homogenate is then centrifuged at 45,000 G for 10 minutes. The supernatant is then discarded and the resulting pellet resuspended in approximately 20 volumes of 50 mM TRIS•hydrochloride buffer at pH 7.7. […]
The inhibitor, control or vehicle is then incubated according to the following procedure. […] The percent inhibition can be calculated for each dose of the compound. An IC50 value can then be calculated from the percent inhibition values.
The activity of the compounds of the present invention for 5-HT1A binding ability can be determined according to the following procedure. […] The tissue is stored at −70° C. until ready for an experiment. […]

An IC50 of no more than 0.1 µM was found for `CCC(O)(c1ccc(N2CC[C@@H](Cc3ccccc3N3CCN(C)CC3)C2=O)cn1)C(C)O` (stereo in doubt) [Formula I, 1-[6-(1-ethyl-1,2-dihydroxy-propyl)-pyridin-3-yl]-3-[2-(4-methyl-piperazin-1-yl)-benzyl]-pyrrolidin-2-one] in this work.
